Blank lines part the entries; values can stand above or below the molecule they belong to. Non-standard residues stand in square brackets, D forms with d. Residues, ends and D or L forms follow the SMILES beside them. *: point of attachment. Cholyl = C[C@H](CCC(=O)*)[C@H]1CC[C@H]2[C@@H]3[C@H](O)C[C@@H]4C[C@H](O)CC[C@]4(C)[C@H]3C[C@H](O)[C@]12C; pGlu = O=C1CC[C@@H](C(=O)O)N1
Experiments:
gastric acid secretion [1] = test: Gastric acid secretion in anaesthetized rats after I.V., intra-ileal or jejunal administration of gastrin peptides (back titration of HCl); conditions: for increase in gastric acid secretion with respect to baseline: P=0.001; for effect on gastric acid secretion: unconjugated gastrin without prior injection of the respective conjugate; for absorption across the ileal wall into the circulation: cholate conjugated form introduced into the ileum; for stimulation of the peak gastric acid secretion: 5 rats
Description: (§1) Experiments were carried out on male Wistar rats of 250–350 g, which had been starved overnight, and which were anaesthetized with an I.P. injection of Sagatal (pentobarbitone sodium, obtainable from Rhône Mérieux, Harlow Essex, UK) of dosage appropriate to the body weight. The criterion for anaesthesia was abolition of the hind limb flexor withdrawal reflex. The following surgical procedures were then carried out: tracheostomy to allow artificial ventilation if required, cannulation of the carotid artery to monitor blood pressure, cannulation of the external jugular vein to allow for the slow bolus infusion of drugs, intubation of the stomach at the pyloro-duodenal junction after ligation of the oesophagus to measure gastric acid secretion, cannulation of the terminal ileum and/or of the proximal jejunum distal to the ligament of Treitz for infusion of peptide hormones.
(§2) Gastric acid secretion was measured by the following method. 1.0 ml of glycine/mannitol buffer (1 part glycine (0.3M) and 4 parts D-mannitol (0.3M) adjusted to pH 6.5) was instilled into the stomach and left for 15 min when withdrawal was made. The HCl secreted was determined by back titration with 10 mM NaOH to pH 6.5.
(§3) The data are expressed as the mean±S.D. μmol HCl secreted by the stomach over the stated time period in response to the experimental procedure.

gastric acid secretion [2] = conditions: rat, in vivo
Description: as §1, §2, §3

- absorption from the upper jejunum (gastric acid secretion [2]): lack of absorption
Molecule: CSCC[C@H](NC(=O)[C@@H](N)Cc1c[nH]c2ccccc12)C(=O)N[C@@H](CC(=O)O)C(=O)N[C@@H](Cc1ccccc1)C(N)=O [G4, Trp-Met-Asp-Phe amide]
- increase in gastric acid secretion with respect to baseline (gastric acid secretion [1]; first intravenous injection (start of experiment)): 0.42±0.10 μmol 15 min^1
- fall in the mean gastric acid level (gastric acid secretion [1]; ileal infusion, 2500 μg kg^−1 in 1.0 ml isotonic saline, 6 experiments, P=0.043): 0.23 ± 0.21 µmol/h
- increase in gastric acid secretion with respect to baseline (gastric acid secretion [1]; second intravenous injection (end of experiment)): 0.50±0.14 μmol 15 min^1
- effect on gastric acid secretion (gastric acid secretion [1]): without effect on gastric acid secretion
- absorption of unconjugated gastrin (gastric acid secretion [2]): absorption of the unconjugated gastrin occurred

Molecule: CSCC[C@H](NC(=O)[C@H](Cc1c[nH]c2ccccc12)NC(=O)CC[C@@H](C)[C@H]1CC[C@H]2[C@@H]3[C@H](O)C[C@@H]4C[C@H](O)CC[C@]4(C)[C@H]3C[C@H](O)[C@]12C)C(=O)N[C@@H](CC(=O)O)C(=O)N[C@@H](Cc1ccccc1)C(N)=O [G4-CA, cholate-Trp-Met-Asp-Phe amide]
- absorption across the ileal wall into the circulation (gastric acid secretion [1]): absorption of the conjugated gastrin across the ileal wall into the circulation occurred

Molecule: CSCC[C@H](NC(=O)[C@H](Cc1c[nH]c2ccccc12)NC(=O)CNC(=O)[C@H](Cc1ccc(O)cc1)NC(=O)[C@H](C)NC(=O)[C@H](CCC(=O)O)NC(=O)[C@H](CCC(=O)O)NC(=O)[C@H](CCC(=O)O)NC(=O)CC[C@@H](C)[C@H]1CC[C@H]2[C@@H]3[C@H](O)C[C@@H]4C[C@H](O)CC[C@]4(C)[C@H]3C[C@H](O)[C@]12C)C(=O)N[C@@H](CC(=O)O)C(=O)N[C@@H](Cc1ccccc1)C(N)=O [G10-CA, cholate-Glu-Glu-Glu-Ala-Tyr-Gly-Trp-Met-Asp-Phe-amide] (Cholyl-EEEAYGWMDF-NH2)
- absorption across the ileal wall into the circulation (gastric acid secretion [1]): absorption of the conjugated gastrin across the ileal wall into the circulation occurred

Molecule: CC[C@H](C)[C@H](NC(=O)[C@H](Cc1ccccc1)NC(=O)[C@H](Cc1c[nH]cn1)NC(=O)[C@H](CCC(N)=O)NC(=O)[C@@H]1CCCN1C(=O)CNC(=O)[C@H](CCC(N)=O)NC(=O)[C@@H]1CCCN1C(=O)CNC(=O)[C@H](CC(C)C)NC(=O)[C@H](CCC(=O)O)NC(=O)CC[C@@H](C)[C@H]1CC[C@H]2[C@@H]3[C@H](O)C[C@@H]4C[C@H](O)CC[C@]4(C)[C@H]3C[C@H](O)[C@]12C)C(=O)N[C@@H](C)C(=O)N[C@@H](CC(=O)O)C(=O)N[C@@H](CC(C)C)C(=O)N[C@@H](CO)C(=O)N[C@@H](CCCCN)C(=O)N[C@@H](CCCCN)C(=O)N[C@@H](CCC(N)=O)C(=O)N[C@@H](CCCNC(=N)N)C(=O)N1CCC[C@H]1C(=O)N1CCC[C@H]1C(=O)N[C@@H](CCSC)C(=O)N[C@@H](CCC(=O)O)C(=O)N[C@@H](CCC(=O)O)C(=O)N[C@@H](CCC(=O)O)C(=O)N[C@@H](CCC(=O)O)C(=O)N[C@@H](CCC(=O)O)C(=O)N[C@@H](C)C(=O)N[C@@H](Cc1ccc(O)cc1)C(=O)NCC(=O)N[C@@H](Cc1c[nH]c2ccccc12)C(=O)N[C@@H](CCSC)C(=O)N[C@@H](CC(=O)O)C(=O)N[C@@H](Cc1ccccc1)C(N)=O [G34-CA] (Cholyl-ELGPQGPQHFIADLSKKQRPPMEEEEEAYGWMDF-NH2)
- absorption across the ileal wall into the circulation (gastric acid secretion [1]): absorption of the conjugated gastrin across the ileal wall into the circulation occurred

Molecule: H-EEEAYGWMDF-NH2 [G10, H-Glu-Glu-Glu-Ala-Tyr-GlyTrp-Met-Asp-Phe-amide]
- stimulation of the peak gastric acid secretion (gastric acid secretion [1]; I.V. 36 μg kg^−1, initial injection, P=0.036): 1.28 ± 0.93 µmol
- stimulation of the peak gastric acid secretion (gastric acid secretion [1]; I.V. 36 μg kg^−1, second injection at the end of the experiment, P=0.048): 1.45 ± 1.15 µmol
- change in gastric acid secretion (gastric acid secretion [1]; infusion into the ileum, 6600 μg kg^−1 in 1.0 ml, not significant (P=0.23)): −1.22±1.93 μmol 180 min^−1
- effect on gastric acid secretion (gastric acid secretion [1]): without effect on gastric acid secretion
- absorption of unconjugated gastrin (gastric acid secretion [2]): absorption of the unconjugated gastrin occurred

Molecule: pGlu-Leu-Gly-Pro-Gln-Gly-Pro-Gln-His-Phe-Ile-Ala-Asp-Leu-Ser-Lys-Lys-Gln-Arg-Pro-Pro-Met-Glu-Glu-Glu-Glu-Glu-Ala-Tyr-GlyTrp-Met-Asp-Phe-NH2 ([pGlu]LGPQGPQHFIADLSKKQRPPMEEEEEAYGWMDF-NH2; ends and bridges not checked) [G34]
- stimulation of the peak gastric acid secretion (gastric acid secretion [1]; I.V. 10 ng kg^−1, second injection at the end of the experiment, P=0.0005): 0.23 ± 0.051 µmol
- stimulation of the peak gastric acid secretion (gastric acid secretion [1]; I.V. near threshold dose 10 ng kg^−1, initial injection, P=0.0008): 0.14 ± 0.034 µmol
- change in mean gastric acid secretion (gastric acid secretion [1]; infusion into the ileum, 10.5 mg kg^−1 in 1.0 ml, not significant (P=0.16)): 0.202±0.262 μmol 180 min^−1
- mean increase in gastric acid secretion (gastric acid secretion [1]; intraileal infusion of G34 subsequent to intraileal infusion of G34-CA, 4 rats, P=0.004): 5.68±1.38 μmol 180 min^−1
- effect on gastric acid secretion (gastric acid secretion [1]): without effect on gastric acid secretion
- absorption of unconjugated gastrin (gastric acid secretion [2]): absorption of the unconjugated gastrin occurred
